Laboratory results: patent US5585234A, “Treatment of infertile sperm in vitro with thymosin α1 to enhance penetration of mammalian ova” (The George Washington University Medical Center, priority 1994, dated 1996)
Ends that are not written are not given here.

How the values were obtained:
Type in all cases: cell-based
human sperm [1] = assay: Human sperm penetration assay of zona-free hamster oocytes (SPA); details: for Ova penetrated, % of control (mean ± SD): 5-6 hours, sperm of fertile men
Experimental: Human sperm penetration assay of zona-free-hamster oocytes (SPA) was performed as described in Naz et al., J. Cell Sci., 102:487-494 (1992). Superovulation was induced in adult female golden hamsters by intraperitoneal injections of 30 IU eCG (pregnant mare serum gonadotropin)(Sigma Chemical Co., St. Louis, Mo.) on day 1 of the cycle. After 55-72 hours, 20 IU hCG (human chorionic gonadotropin) (Sigma) were administered intraperitoneally. 15-17 hours later the animals were sacrificed and the mature unfertilized ova were collected from the oviducts. The ova were separated from the surrounding cumulus cells by incubation with 0.2% hyaluronidase in Biggers, Witten and Wittingham (BWW) medium and from the zonae pellucida by treatment with 0.1% pancreatic trypsin in BWW. The zona-free ova were twice washed in BWW and placed in the center of a tissue culture dish.
Semen from a fertile person was liquified for 15-30 minutes at 37° C. and the swim-up sperm population was collected. Collection techniques are described in Naz et al., J. Cell Sci., 99:157-165 (1991). The sperm cells from the swim-up were washed with BWW supplemented with 1% BSA (Sigma Chemical Co.) adjusted to 5-10×10^6 motile sperm per milliliter and then allowed to incubate for 5-6 hours at 37° C. ([…]) or polyclonal antisera elicited in response to those immunogens (10-20 microliters of antiserum/100 microliters of sperm suspension) or the same amount of control antibodies (normal rabbit serum, anti-KLH antibodies or anti-HGP-30 antibodies) or the equivalent volume of PBS containing 0.5% BSA (PBS/BSA). After incubation the sperm were washed to remove the unreacted thymosin or anti-thymosin antibody and co-incubated with the zona-denuded hamster oocytes (30-50 eggs/treatment in each assay) for three to four hours. The oocytes were removed, thoroughly washed, fixed with 3% […] and stained with acetocarmine solution. Sperm penetration was determined by the presence of a swollen spermhead with a discernable tail in the cytoplasm of the ovum. Motility of sperm before and after incubation with ova was recorded. The assays were repeated at least three to eight times using different fertile donors and each sample tested with at least 82-480 oocytes.
The percentage of ova penetrated was calculated according to the following formula; [formula]

human sperm [2] = assay: Assessment of acrosomal status (triple stain) of human sperm; details: for Effect on capacitation and acrosome reaction of human sperm cells: 0.5 micrograms/microliter, 5-6 hours, with or without ionophore; for Acrosome reacted sperm (%) (Mean ± SD): thymosins 0.5 μg/100 μl
Experimental: Motile sperm were collected from fertile men by the swim up procedure as set forth in Naz et al., referenced above. Good quality sperm samples, i.e., (5×10^6 motile sperm per milliliter), greater than 75% motility, +3 to +4 forward progression on a scale of 0 to +5 were incubated with Tα1 or Tβ4 or anti-Tα1 antibodies or anti-Tβ4 antibodies. The controls were treated with the same amount of normal rabbit serum, anti-KLH antibodies, anti-HGP 30 antibodies or PBS-BSA as previously described. After incubation, the spermatozoa were centrifuged, washed in PBS and divided into two aliquots. One aliquot was induced to acrosome react with calcium ionophore (Calcium ionophore A23187 (Sigma)) and incubated with sperm suspension for one hour. The other aliquot was allowed to spontaneously acrosome react without treating with calcium ionophore. Calcium ionophore treatment was carried out to induce acrosome reaction of the capacitated sperm. The acrosomal status was assessed using the triple stain procedure described by Jager et al., Arch. Androl., 12:53-58 (1984). The sperm were washed twice in PBS and then incubated at 37° C. for fifteen minutes with 2% Trypan blue (Sigma 1:1 v/v) in PBS. After incubation, the sperm were washed twice, fixed in three percent glutaraldehyde, 0.1M cacodylate buffer for sixty minutes and then twice washed again in PBS. A drop of this suspension was placed on a glass slide and allowed to air dry overnight. The dried slide was stained with 0.8% Bismark Brown (Sigma) in deionized water (pH 1.8 with 2N HCl), rinsed in deionized water and stained for 45 minutes at room temperature in 0.8% Rose Bengal (Sigma) in 0.1M cacodylate buffer at pH 6.0. The slides were again washed in deionized water, dehydrated in an alcohol series, cleared in xylene and mounted with permount and a coverslip. A total of 200-500 sperm per sample were evaluated and recorded as either alive or dead. The alive sperm were further evaluated as acrosome-intact or acrosome-non-intact (reacted) sperm. The experiments were repeated 3-5 times using sperm of at least three different fertile donors.

human sperm [3] = assay: Assessment of acrosin distribution (BAPNA acrosin activity in cells and supernatant); details: for Effect on acrosin distribution vs PBS-BSA treated sperm: peptide 0.5 micrograms/100 microliters, with or without ionophore; for Acrosin activity, cells (Mean ± SD) / Acrosin activity, supernatant (Mean ± SD): thymosins 0.5 μg/100 μl
Experimental: After incubation with the thymosin peptides or the anti-thymosin antibodies or control antibodies or PBS-BSA and with or without treating with calcium ionophore A23187 for one hour as described above, the sperm cells were centrifuged and the acrosin activity determined in the supernatant and cells by the method of Kennedy et al., J. Androl., 10:21-27 (1989). Ninety microliters of the supernatant or the pelleted sperm cells suspended in 90 microliters of PBS were mixed with one milliliter of the reaction mixture. The reaction mixture comprises one milligram per milliliter of N-benzoyl-dl-arginine-P-nitraniline (BAPNA) hydrochloride in 0.055M HEPES buffer, 0.055M NaCl, 10% v/v (dimethylsulfoxide), 0.1% v/v TRITON X-100 (t-Octylphenoxypolyethoxyethanol). The solution then was incubated for three hours at room temperature. The reaction was stopped by the addition of 100 microliters of 0.5M benzamidine and the absorbance measured at 405 nanometers using a Beckman spectrophotometer. Acrosin activity was expressed as μIU/10^6 spermatozoa. The daily variability of the assay was normalized using a cryopreserved partially-purified human acrosin extract. The preparation of such extracts is taught by Naz et al., J. Cell Sci., 102:487-494 (1992).

human sperm [4] = assay: Sperm motion analysis (computerized semen analyzer); details: for Effect on motility characteristics (velocity, ALH, beat frequency) / Effect on the percentage of motile sperm cells: peptide 0.5 micrograms per hundred microliters; for ALH (amplitude of lateral head displacement) (Mean ± S.D.) / Beat Frequency (Mean ± S.D.) / Linearity (Mean ± S.D.) / Percent Motility / Velocity (Mean ± S.D.): thymosins 0.5 μg/100 μl, 5 to 6 hours
Experimental: After incubation with thymosin peptides or their antibodies for 5 to 6 hours as described above, an aliquot (7 microliters) of the sperm suspension was placed into a Makler chamber (Sefi Medical Instruments, Israel) and the sperm motion characteristics measured using a computerized semen analyzer (Cell Soft Cryo Resources, N.Y.). The parameter settings were 30 frames analyzed at an image frequency of 30 Hz, 3 frames minimum sampling for motility, 15 frames minimum sampling for both velocity and amplitude of the lateral head movement ("ALH") measurements, 10 micrometers per second threshold velocity, minimum linearity of 2.5 for ALH measurements and a cell size range of 4-40 pixels with a magnification calibration of 0.688 micrometers per pixel.

[5] = peptide 0.1 μg/100 μl sperm suspension
[6] = peptide 0.5 μg/100 μl sperm suspension
[7] = peptide 2.0 μg/100 μl sperm suspension
[8] = peptide 10.0 μg/100 μl sperm suspension

Row | Substance | Ova penetrated, % of control (mean ± SD) (human sperm [1]; [5]) [%] | Ova penetrated, % of control (mean ± SD) (human sperm [1]; [6]) [%] | Ova penetrated, % of control (mean ± SD) (human sperm [1]; [7]) [%] | Ova penetrated, % of control (mean ± SD) (human sperm [1]; [8]) [%] | Effect on capacitation and acrosome reaction of human sperm cells (human sperm [2]) | Acrosome reacted sperm (%) (Mean ± SD) (human sperm [2]; with ionophore treatment) | Acrosome reacted sperm (%) (Mean ± SD) (human sperm [2]; without ionophore treatment) | Effect on acrosin distribution vs PBS-BSA treated sperm (human sperm [3]) | Acrosin activity, cells (Mean ± SD) (human sperm [3]; with ionophore treatment) [μIU/10^6 spermatozoa] | Acrosin activity, supernatant (Mean ± SD) (human sperm [3]; with ionophore treatment) [μIU/10^6 spermatozoa] | Acrosin activity, cells (Mean ± SD) (human sperm [3]; without ionophore treatment) [μIU/10^6 spermatozoa] | Acrosin activity, supernatant (Mean ± SD) (human sperm [3]; without ionophore treatment) [μIU/10^6 spermatozoa] | Effect on motility characteristics (velocity, ALH, beat frequency) (human sperm [4]) | Effect on the percentage of motile sperm cells (human sperm [4]) | ALH (amplitude of lateral head displacement) (Mean ± S.D.) (human sperm [4]) | Beat Frequency (Mean ± S.D.) (human sperm [4]) | Linearity (Mean ± S.D.) (human sperm [4]) | Percent Motility (human sperm [4]) [%] | Velocity (Mean ± S.D.) (human sperm [4]) | other results
1 | thymosin-α1 (SDAAVDTSSEITTKDLKEKKEVVEEAEN; not fully specified; ends and bridges not checked; UniProt P06454 2-29, looked up) [Tα1, Thymus factor peptide; available from Alpha 1 Biomedicals] | 251.0 ± 36.3 | 204.0 ± 13.9 | 100.5 ± 0.7 | 102.2 ± 18.9 | significantly enhanced capacitation and acrosome reaction | 69.2 ± 3.6 | 18.5 ± 3.5 | significantly higher quantity of acrosin concentration released in the supernatant and a lower quantity of acrosin concentration in the sperm cells | 30.6 ± 7.2 | 68.2 ± 16.6 | 64.5 ± 6.4 | 27.5 ± 13.4 | significantly affected the velocity, ALH and beat frequency | No effect | 4.0 ± 0.3 | 13.7 ± 0.6 | 3.9 ± 0.6 | 80.3 ± 6.2 | 61.1 ± 3.0 | Fold increase of percentage of ova penetrated compared to PBS-BSA-treated control sperm (human sperm [1]; 0.05 to 0.5 μg Tα1/100 μl sperm suspension, P<0.001): up to 2.6 fold; Ova penetrated, % of control (mean ± SD) (human sperm [1]; peptide 0.01 μg/100 μl sperm suspension): 120.3 ± 11.6%; Ova penetrated, % of control (mean ± SD) (human sperm [1]; peptide 0.05 μg/100 μl sperm suspension): 268.2 ± 26.4%
2 | thymosin-β4 [Tβ4] | 102.7 ± 6.5 | 99.7 ± 10.1 | 61.8 ± 27.9 | 31.5 ± 12.2 | did not exhibit a significant effect | 61.5 ± 4.8 | 14.5 ± 2.1 | no significant effect | 38.5 ± 7.1 | 52.8 ± 16.2 | 76.5 ± 9.1 | 21.0 ± 14.4 | Neither Tβ4 peptide nor the control antibodies affected any motility characteristics | No effect | 3.7 ± 0.4 | 13.1 ± 0.3 | 4.0 ± 0.6 | 76.0 ± 4.3 | 58.5 ± 2.6 | 
